Reference: paper PMC10287695, “Non-covalent inhibitors of thioredoxin glutathione reductase with schistosomicidal activity in vivo” (Nature Communications, 2023)
Where “and” joins values, the source holds several entries; their conditions need not be identical. Equal values may be shown once.

Tests used:
TGR [1] = target: T1, TGR (Schistosoma mansoni, UniProt Q962Y6); assay: Reversibility by jump dilution; format: biochemical; details: for % Activity (ID list), D0 / % Inhibition (ID list), D0: D0: diluted 1:100, activity determined immediately; for % Activity (ID list), D0 / % Inhibition (ID list), D0 / % Activity (ID list), D60 / % Inhibition (ID list), D60 / % Activity (ID list) / % Inhibition (ID list): list for plotting; for % Activity (ID list), D60 / % Inhibition (ID list), D60: D60: diluted 1:100, activity determined after 60 min; for % Activity, 0 min / % Activity, 60 min / % Activity, -15: relative to DMSO; for Inhibitor (rate), -15 / % Activity, -15: [-15]: 15 min preincubation inhibitor + TGR + NADPH, then activity determined, replicates; for % Activity (ID list) / % Inhibition (ID list): before dilution (-15)
T1 construct: made in house
T1 sequence (Q962Y6 1-598): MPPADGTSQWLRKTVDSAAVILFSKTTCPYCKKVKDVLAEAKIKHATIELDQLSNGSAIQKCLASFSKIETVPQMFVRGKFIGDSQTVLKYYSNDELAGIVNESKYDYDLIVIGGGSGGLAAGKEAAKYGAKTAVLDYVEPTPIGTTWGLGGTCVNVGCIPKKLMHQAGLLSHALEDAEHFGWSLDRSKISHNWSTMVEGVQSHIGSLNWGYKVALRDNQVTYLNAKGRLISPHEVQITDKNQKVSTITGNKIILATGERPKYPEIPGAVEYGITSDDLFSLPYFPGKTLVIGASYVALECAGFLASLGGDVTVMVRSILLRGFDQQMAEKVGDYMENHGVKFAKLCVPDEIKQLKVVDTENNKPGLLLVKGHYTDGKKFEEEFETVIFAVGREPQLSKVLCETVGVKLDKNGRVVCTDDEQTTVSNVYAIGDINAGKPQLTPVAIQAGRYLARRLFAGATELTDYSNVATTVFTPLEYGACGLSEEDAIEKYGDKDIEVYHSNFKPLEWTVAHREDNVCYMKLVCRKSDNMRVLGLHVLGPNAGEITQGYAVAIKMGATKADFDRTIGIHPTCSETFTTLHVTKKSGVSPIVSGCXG
Method: A reaction of 370 nM TGR, 100 µM NADPH, and 250 µM inhibitor was incubated for 15 min at room temperature. A 100x dilution of the reaction was made and the activity was determined immediately and after 60 min.

[2] = test system: TGR in newly transformed schistosomula (NTS); assay: TGR inhibition in NTS with TRFS-Green fluorescent probe; format: cell-based, S. mansoni; details: 2 h with inhibitor (30 µM; AF 3 µM) then TRFS-Green 10 µM
Method: TGR inhibition in NTS was assessed using a fluorescent probe TRFS-Green (Medchemexpress)[43]. NTS prepared as previously described and cultured in M199 supplemented with 5.5 mM D-glucose, penicillin-streptomycin and 5% heat inactivated fetal bovine serum were incubated at 37 °C in a clear bottom flat well plate in a 5% CO2 incubator overnight. […] NTS were further treated with TRFS-Green (10 µM) for additional 4 h and rinsed with M199 medium to remove residual TRFS-Green. Fluorescence images were obtained using Keyence BZ-X800. The quantification of fluorescence intensity upon the uptake of TRFS-Green by NTS was performed by a fluorescent microplate imager (BioTek Cytation3) (excitation, 438 nm; emission, 538 nm) hourly for 5 h and after 24 h.

[3] = test system: S. mansoni juvenile worms (21 days); assay: Schistosomicidal activity ex vivo, juvenile worms (21 days); format: cell-based; details: for LD50 ex vivo S. mansoni 21 days: juvenile worms, 48 h exposure
Method: Three-week old, female Swiss-Webster mice obtained from the Charles River were housed in the Comparative Research Center of Rush University Medical Center. Mice were infected by percutaneous tail exposure to about 200 S. mansoni or 50 S. japonicum cercaria for adult worms and about 1000 cercaria for juvenile S. mansoni worms through natural transdermal penetration of the cercariae for 1 h[81].
DMSO formulated compounds were diluted with phenol red free M199 medium or RPMI medium for NTS or juvenile and adult worms, respectively, at <1% DMSO final concentrations. NTS, juvenile and adult worms from overnight cultures were tested against compounds in triplicate. Controls were treated with DMSO alone or 5 µM AF as a positive control in appropriate medium. […] Schistosome viabilities in the presence of the compounds were assessed using this formula: % Viability = Averages of Test / Averages of DMSO Control x 100.

TGR [4] = target: T1, TGR; assay: Thermal shift assay (TSA); format: binding; set-up: key to Avg. Tm / Tm, replicate 1-3: Tm in °C, from a 25–95 °C melt curve; details: for Avg. Tm / Tm, replicate 1-3: TGR + 100 µM compound; for Avg. Tm, + 500 µM NADPH / Tm, replicate 1-3, + 500 µM NADPH: TGR + 100 µM compound + 500 µM NADPH; for Tm, replicate 1-3, + 500 µM NADPH / Tm, replicate 1-3: single replicates; for effect on Tm of oxidized TGR: without NADPH
Method: Samples were prepared by using a final concentration of 0.25 mg/ml TGR diluted in TGR reaction buffer to the desired volume. To evaluate reduced TGR, 500 µM NADPH was added. […] After the preincubation period, 20 µL samples were pipetted into a BioRad un-skirted PCR 96 well plate and sealed with MicroAmp^TM Optical Adhesive film. The plate was then centrifuged for 5 min at 1000 × g. TSA was carried out using a BioRad CFX Connect qPCR instrument with a melt curve setting of 25 − 95 °C, in increments of 0.5 °C/10 seconds. The SYBR green channel was used to detect fluorescence as the wavelength of flavin fluorescence overlaps with that of SYBR green. BioRad CFX Maestro 5.2 was used to analyze TSA data.

TGR [5] = target: T1, TGR; assay: Time dependence of inhibition; format: biochemical; set-up: avg % inhib, 0.5 hr / avg % inhib, 1 hr / avg % inhib, 2 hr / avg % inhib, 3 hr / avg % inhib, 6 hr / avg % inhib, 24 hr: tested at 50 µM; details: panel d Time Dependence
Method: TGR was incubated at room temperature (up to 6 h) and at 4 °C for 6 to 24 h with 50 µM inhibitor and 100 µM NADPH for the indicated times. Then DTNB (3 mM) and NADPH (100 µM) were added, and the reaction was monitored at A412 for 5 min. The assay was done in triplicate.

[6] = Cytotoxicity in mammalian cells (Cell Titer Glo); format: cell-based; details: African green monkey, Vero cells, relative to untreated control
Method: Following overnight incubation, formulated DMSO-compound stock solutions were diluted with DMEM at <1% DMSO final concentrations. […] Vero cells treated similarly with different concentrations of PZQ, MZM and AF (Cayman Chemicals) were used as positive controls.

[7] = [0, D0]: 15 min preincubation inhibitor + TGR + NADPH, diluted 1:100, then activity determined immediately
[8] = [60, D60]: 15 min preincubation inhibitor + TGR + NADPH, diluted 1:100, then activity determined after 60 min

CC(=O)OC[C@H]1O[C@@H]([S-])[C@H](OC(C)=O)[C@@H](OC(C)=O)[C@@H]1OC(C)=O.CCP(CC)CC.[Au+] [AF, auranofin, reference compound]
reversibility of TGR inhibition (TGR [1]; 250 µM inhibitor, 100-fold jump dilution): irreversible
% Activity (ID list), D0 (TGR [1]): 1.9% and -0.049%
% Inhibition (ID list), D0 (TGR [1]): 98.1% and 100.0%
% Activity (ID list), D60 (TGR [1]): 3.7% and -3.0% and -2.8%
% Inhibition (ID list), D60 (TGR [1]): 96.3% and 103.0% and 102.8%
% Activity, 0 min (TGR [1]; [7]): 1.94% and 1.91% and -0.04934%
% Activity, 60 min (TGR [1]; [8]): 3.69% and -3.0493% and -2.833%
Inhibitor (rate), -15 (TGR [1]; raw rate): 0.001018 and 0.001002 and 0.001033
% Activity, -15 (TGR [1]): 0.7444% and 0.7656% and 0.7594%
% Activity (ID list) (TGR [1]): 0.744% and 0.8% and 0.759%
% Inhibition (ID list) (TGR [1]): 100.0%
TRFS-Green fluorescence in NTS [2]: significant decreases in fluorescence
% viability ([3]; 23 day S. mansoni worms, 48 HR, Conc. 0.5 µM): 50.0296%
% viability ([3]; 23 day S. mansoni worms, 48 HR, Conc. 1 µM): 15.8933%
% viability ([3]; 23 day S. mansoni worms, 48 HR, Conc. 2.5 µM): 5.6364%
% viability ([3]; 23 day S. mansoni worms, 48 HR, Conc. 5 µM): 0.3335%
LD50 ex vivo S. mansoni 21 days [3]: 0.62 ± 0.01 µM

Cc1oc(-c2ccc3ccccc3c2)nc1CNC1CCCCCC1 [Compound 5]
% Activity (ID list), D0 (TGR [1]): 94.7% and 95.5% and 104.1%
% Inhibition (ID list), D0 (TGR [1]): 5.3% and 4.5% and -4.1%
% Activity (ID list), D60 (TGR [1]): 114.3% and 110.2%
% Inhibition (ID list), D60 (TGR [1]): -11.2% and -14.3% and -10.2%
Inhibitor (rate), 0 min (TGR [1]; [0, D0]: 15 min preincubation inhibitor + TGR + NADPH, diluted 1:100, then activity determined immediately, raw rate): 0.0437 and 0.04487 and 0.04514
% Activity, 0 min (TGR [1]; [7]): 94.6912% and 95.4681% and 104.129%
Inhibitor (rate), 60 min (TGR [1]; [60, D60]: 15 min preincubation inhibitor + TGR + NADPH, diluted 1:100, then activity determined after 60 min, raw rate): 0.04807 and 0.05093 and 0.05141
% Activity, 60 min (TGR [1]; [8]): 111.196% and 114.27% and 110.156%
Inhibitor (rate), -15 (TGR [1]; raw rate): 0.01816 and 0.01807 and 0.01832
% Activity, -15 (TGR [1]): 52.6988% and 50.0277% and 51.6493%
% Activity (ID list) (TGR [1]): 52.7% and 50.0% and 51.6%
% Inhibition (ID list) (TGR [1]): 47.3% and 50.0% and 48.4%
Avg. Tm (TGR [4]): 73.5
Avg. Tm, + 500 µM NADPH (TGR [4]): 73.5
Tm, replicate 1-3, + 500 µM NADPH (TGR [4]; in °C (unit assumed)): 73.5
Tm, replicate 1-3 (TGR [4]; in °C (unit assumed)): 73.5
effect on Tm of oxidized TGR (TGR [4]): Neither fast 6-9 nor slow TGR inhibitors 1, 3, 5 affected the Tm
rate, 0.5 hr (TGR [5]; 0.5 hr): 0.06403 and 0.06491 and 0.06611
avg % inhib, 0.5 hr (TGR [5]; 0.5 hr, average): 19.3871%
% inhib, 0.5 hr (TGR [5]; 0.5 hr, replicates): 19.4895% and 20.5216% and 18.1503%
rate, 1 hr (TGR [5]; 1 hr): 0.05507 and 0.05598 and 0.05641
avg % inhib, 1 hr (TGR [5]; 1 hr, average): 24.7276%
% inhib, 1 hr (TGR [5]; 1 hr, replicates): 25.2173% and 23.9092% and 25.0565%
rate, 2 hr (TGR [5]; 2 hr): 0.04485 and 0.04477 and 0.04629
avg % inhib, 2 hr (TGR [5]; 2 hr, average): 32.9849%
% inhib, 2 hr (TGR [5]; 2 hr, replicates): 32.4141% and 34.3548% and 32.1858%
rate, 3 hr (TGR [5]; 3 hr): 0.03515 and 0.03538 and 0.0359
avg % inhib, 3 hr (TGR [5]; 3 hr, average): 39.3918%
% inhib, 3 hr (TGR [5]; 3 hr, replicates): 39.6774% and 39.4903% and 39.0078%
rate, 6 hr (TGR [5]; 6 hr): 0.02164 and 0.02197 and 0.02345
avg % inhib, 6 hr (TGR [5]; 6 hr, average): 53.9938%
% inhib, 6 hr (TGR [5]; 6 hr, replicates): 54.1525% and 54.5887% and 53.2403%
rate, 24 hr (TGR [5]; 24 hr): 0.00977 and 0.01005 and 0.01035
avg % inhib, 24 hr (TGR [5]; 24 hr, average): 73.1913%
% inhib, 24 hr (TGR [5]; 24 hr, replicates): 73.884% and 73.0491% and 72.6408%
viability at 5 µM ([3]; Schistosoma mansoni, 23 day S. mansoni worms, 48 HR, Conc. 5 µM): 65.4%
viability at 15 µM ([3]; Schistosoma mansoni, 23 day S. mansoni worms, 48 HR, Conc. 15 µM): 52.1%
viability at 30 µM ([3]; Schistosoma mansoni, 23 day S. mansoni worms, 48 HR, Conc. 30 µM): 36.8%
LD50 ex vivo S. mansoni 21 days [3]: 16.9 ± 2.80 µM

CC1C(NCc2cn(C3OCC(O)C(O)C3O)c3ccccc23)CC2CC1C2(C)C (centres unmarked) [Compound 9]
shift of Tm of reduced TGR (TGR [4]; 400uM compound): 1.5 °C
shift of Tm of reduced TGR (TGR [4]; 1mM compound): 3 °C
Avg. Tm (TGR [4]): 74.8
Avg. Tm, + 500 µM NADPH (TGR [4]): 68
Tm, replicate 1-3, + 500 µM NADPH (TGR [4]; in °C (unit assumed)): 67.5 and 68 and 69
Tm, replicate 1-3 (TGR [4]): 74.5 (2×) and 75
effect on Tm of oxidized TGR (TGR [4]): doesn’t shift the Tm
viability at 24 h, 5 µM ([6]; 5 µM): 92.7%
viability at 24 h, 10 µM ([6]; 10 µM): 90.7%
viability at 24 h, 25 µM ([6]; 25 µM): 89.9%
viability at 24 h, 35 µM ([6]; 35 µM): 89.6%
viability at 24 h, 50 µM ([6]; 50 µM): 83.5%
